Measured values as given in patent publication US20040006070A1, “Intraspinal continuous infusion of midazolam hydrochloride for the treatment of pain” (priority 2002, published 2004).
Read-outs that look alike come from different tables or passages of the source.

Experiments:
[1] = Physiological data: indirect blood pressure, pulse, rectal temperature, weight; format: in vivo, sheep; settings: sheep #980 Dudley
From the text: Daily rectal temperatures were taken and any behavioral/motor changes were noted. Gait monitoring will be conducted as described below based on a four-grade scale for the evaluation of behavioral and motor changes. Grade 0: animal standing, sheep is able to rise and ambulate without any difficulty. Grade 1: Shuffling of either rear leg or slight limp; slight distortion of normal spinal axis. Grade 2: Loss of righting reflex in one of the rear legs, sheep able to stand without assistance, but with some difficulty. Grade 3: Inability to maintain standing posture; attempts to help animal stand are unsuccessful.
Indirect blood pressure, pulse recording, pain testing (mechanical stimulus device, cold and warm water baths see description in procedure) and weight were taken on days 1, 3, 7, 15, 22, 29, 36, and 43. Venous blood samples (15 ml drawn from the jugular vein with Vacutainer brand blood collection tubes) for complete blood count, electrolytes, and extended blood chemistry were drawn on days 1, 15, and 43 (mild procedure only light hand restraint necessary).

[2] = tested on: neuropathic pain model in the sheep; experiment: Neuropathic pain model in sheep, behavior monitoring (Observer 3.0) with visual analog pain score; format: in vivo
From the text: The neuropathic pain model in the sheep is created by placing four tight ligatures around the median, radial, or ulnar nerve (or a combination thereof) with 0-chromic gut suture. This method produces a chronic painful peripheral mononeuropathy which may be related to those conditions seen in humans with causalgia and reflex sympathetic dystrophy.
To evaluate animal behavior, the Observer 3.0 software (Noldus Information Technology, The Netherlands) was used to aid docmentation of a daily record of multiple traits. […] The behavior was then interpreted into a visual analog pain score (VAS), where 0 represents no pain and 100 represents severe pain.
Approximately three days prior to surgery each sheep will undergo a 15-minute baseline behavior evaluation. The observations made in this evaluation include, a computerized behavior software recording (the Observer) for 15minutes—gait monitoring—and recording of pain perception via visual analog scale-using the Observer. In some animals, recording of vital signs (blood pressure, heart rate, respirations per minute) will be performed using the Observer. Baseline values for pain perception are recorded via the mechanical stimulus device and/or behavior monitoring will also be performed at this time.
The sheep will be observed daily postoperatively. […] Observations of neuropathic pain development include changes in ambulation, alertness, appetite, urination, defecation, herding activity, body temperature and pain behaviors. This daily behavior is recorded utilizing the observer (an observational software system).

[3] = cited from earlier work
[4] = Toxicity in neuropathic pain sheep: clinical signs, necropsy, histopathology; format: in vivo; settings: sheep #604 Clint
From the text: Animals will be observed daily for any signs of clinical toxicity such as limping and loss of appetite. At necropsy the spinal cord will be examined for any gross changes. Histopathologic evaluation will be performed on all animals after drug studies are complete. These examinations will detect any neurotoxicity that may be present due to the spinal infusion of midazolam.

[5] = sheep #980 Dudley, MDZ 2 mg per day
[6] = sheep #980 Dudley, MDZ 2 mg per day, daily values
[7] = sheep #980 Dudley, MDZ 3 mg per day
[8] = sheep #980 Dudley, MDZ 3 mg per day, daily values, first and second course
[9] = sheep #980 Dudley, MDZ 4 mg per day
[10] = sheep #980 Dudley, MDZ 5 mg per day, daily values
[11] = sheep #980 Dudley, MDZ 6 mg per day
[12] = sheep #980 Dudley, MDZ 6 mg per day, daily values
[13] = sheep #980 Dudley, MS 1 mg per day, daily values
[14] = sheep #980 Dudley, MS 2 mg per day
[15] = sheep #980 Dudley, MS 3 mg per day, daily values
[16] = sheep #980 Dudley, MS 4 mg per day
[17] = sheep #980 Dudley, MS 5 mg per day
[18] = sheep #980 Dudley, MS 5 mg per day, daily values
[19] = sheep #980 Dudley, MS 6 mg per day
[20] = sheep #980 Dudley, MS 6.5 mg per day, daily values

Cc1ncc2n1-c1ccc(Cl)cc1C(c1ccccc1F)=NC2 [MDZ]
Resp per min. ([1]; MDZ 4 mg per day): 58 per min.
Other behavior: Defaecation [2, 5]: 0.65%
Other behavior: Eating lying [2, 5]: 1.69%
Other behavior: Ruminating laying down [2, 5]: 98.28%,
Other behavior: Ruminating standing [2, 5]: 0.48%
Grind teeth [2, 6]: 0%
Other behavior [2, 6]: 0
Other behavior: Defaecation [2, 7]: 0.49%
Other behavior: Drinking [2, 7]: 0.6%
Other behavior: Eating lying [2, 7]: 1.14%
Grind teeth [2, 8]: 0%
Holding unoperated leg off the ground [2, 8]: 0%
Other behavior [2, 8]: 0
Eating [2, 9]: 36.49%
Grind teeth [2, 9]: 0%
Holding operated leg off the ground [2, 9]: 2.78%
Holding unoperated leg off the ground [2, 9]: 0.36%
Laying down [2, 9]: 0%
Not bearing weight on operated leg [2, 9]: 29.65%
Observe Operated leg [2, 9]: 1.51%
Other behavior: Bleating [2, 9]: 0.76%
Pain Score [2, 9]: 50%
Standing [2, 9]: 0.52%
Walking [2, 9]: 1.09%
Grind teeth [2, 10]: 0%
Holding unoperated leg off the ground [2, 10]: 0%
Laying down [2, 10]: 0%
Observe Operated leg [2, 10]: 0%
Pain Score [2, 10]: 85%
Standing [2, 10]: 0%
Other behavior: Defaecation [2, 11]: 0.94%
Other behavior: Eating lying [2, 11]: 0.21%
Other behavior: Pulling wool [2, 11]: 0.26%,
Grind teeth [2, 12]: 0%
Holding unoperated leg off the ground [2, 12]: 0%
Laying down [2, 12]: 0%
Other behavior [2, 12]: 0
Standing [2, 12]: 0%

CN1CC[C@]23c4c5ccc(O)c4O[C@H]2[C@@H](O)C=C[C@H]3[C@H]1C5.CN1CC[C@]23c4c5ccc(O)c4O[C@H]2[C@@H](O)C=C[C@H]3[C@H]1C5.O=S(=O)(O)O [MS]
Resp per min. ([1]; MS 2 mg per day): 22 per min.
Resp per min. ([1]; MS 4 mg per day): 64 per min.
Resp per min. ([1]; MS 6 mg per day): 64 per min.
Other behavior: Drink ([2]; sheep #980 Dudley, MS 1 mg per day): 0.5%
Laying down [2, 13]: 0%
Other behavior [2, 13]: 0
Eating [2, 14]: 0%
Grind teeth [2, 14]: 1.39%
Holding operated leg off the ground [2, 14]: 15.88%
Holding unoperated leg off the ground [2, 14]: 0%
Laying down [2, 14]: 0%
Not bearing weight on operated leg [2, 14]: 64.74%
Observe Operated leg [2, 14]: 0.19%
Other behavior [2, 14]: 0
Pain Score [2, 14]: 90%
Standing [2, 14]: 17.34%
Walking [2, 14]: 0.47%
Other behavior: Ruminating standing ([2]; sheep #980 Dudley, MS 3 mg per day): 2.69%
Holding unoperated leg off the ground [2, 15]: 0%
Laying down [2, 15]: 0%
Other behavior [2, 15]: 0
Pain Score [2, 15]: 85%
Standing [2, 15]: 0%
Eating [2, 16]: 4.72%
Grind teeth [2, 16]: 0%
Holding operated leg off the ground [2, 16]: 5.2%
Holding unoperated leg off the ground [2, 16]: 0%
Laying down [2, 16]: 0%
Not bearing weight on operated leg [2, 16]: 69.53%
Observe Operated leg [2, 16]: 0%
Other behavior: Ruminating standing [2, 16]: 15.2%
Pain Score [2, 16]: 83%
Standing [2, 16]: 0%
Walking [2, 16]: 5.36%
Other behavior: Bleating [2, 17]: 0.98%
Other behavior: Eating lying [2, 17]: 0.7%,
Other behavior: Pulling wool [2, 17]: 0.28%,
Other behavior: pawing ground [2, 17]: 0.85%
Grind teeth [2, 18]: 0%
Standing [2, 18]: 0%
Eating [2, 19]: 0%
Grind teeth [2, 19]: 0%
Holding operated leg off the ground [2, 19]: 9.77%
Holding unoperated leg off the ground [2, 19]: 0.52%
Laying down [2, 19]: 43.57%
Not bearing weight on operated leg [2, 19]: 35.43%
Observe Operated leg [2, 19]: 0.66%
Other behavior [2, 19]: 0
Pain Score [2, 19]: 80%
Standing [2, 19]: 0.99%
Walking [2, 19]: 9.07%
Other behavior: Eating lying ([2]; sheep #980 Dudley, MS 6.5 mg per day): 9.31%
Holding unoperated leg off the ground [2, 20]: 0%
Other behavior [2, 20]: 0

COc1ccc2c3c1O[C@H]1C(=O)CC[C@@]4(O)[C@@H](C2)N(C)CC[C@]314 [Oxycodone]
approximate equipotent dose, IT ([3]; route IT): 10
approximate equipotent dose, IV ([3]; route IV): 200
approximate equipotent dose, PO ([3]; route PO): 600

CN1CC[C@]23c4c5ccc(O)c4O[C@H]2[C@@H](O)C=C[C@H]3[C@H]1C5.O=S(=O)(O)O [morphine, morphine sulfate]
Pain Score ([2]; Sheep #604 Clint, 6 mg Morphine per day intrathecal, first infusion period, Dec. 7, 2001, day of study 0): 60%
Pain Score ([2]; Sheep #604 Clint, 6 mg Morphine per day intrathecal, first infusion period, Dec. 8, 2001, day of study 1): 60%
Pain Score ([2]; Sheep #604 Clint, 6 mg Morphine per day intrathecal, first infusion period, Dec. 9, 2001, day of study 2): 60%
Pain Score ([2]; Sheep #604 Clint, 6 mg Morphine per day intrathecal, first infusion period, Dec. 11, 2001, day of study 4): 45%
Pain Score ([2]; Sheep #604 Clint, 6 mg Morphine per day intrathecal, first infusion period, Dec. 12, 2001, day of study 5): 30%
Pain Score ([2]; Sheep #604 Clint, 6 mg Morphine per day intrathecal, first infusion period, Dec. 13, 2001, day of study 6): 35%
Pain Score ([2]; Sheep #604 Clint, 6 mg Morphine per day intrathecal, first infusion period, Dec. 14, 2001, day of study 7): 40%
Pain Score ([2]; Sheep #604 Clint, 6 mg Morphine per day intrathecal, first infusion period, Dec. 15, 2001, day of study 8): 50%
Pain Score ([2]; Sheep #604 Clint, 6 mg Morphine per day intrathecal, first infusion period, Dec. 16, 2001, day of study 9): 40%
Pain Score ([2]; Sheep #604 Clint, 6 mg Morphine per day intrathecal, first infusion period, Dec. 17, 2001, day of study 10): 33%
Pain Score ([2]; Sheep #604 Clint, 6 mg Morphine per day intrathecal, first infusion period, Dec. 18, 2001, day of study 11): 35%
Pain Score ([2]; Sheep #604 Clint, 6 mg Morphine per day intrathecal, first infusion period, Dec. 19, 2001, day of study 12): 35%
Pain Score ([2]; Sheep #604 Clint, 6 mg Morphine per day intrathecal, first infusion period, Dec. 20, 2001, day of study printed 0, changed to saline at 1:30 PM): 33%
Pain Score ([2]; Sheep #604 Clint, 6 mg Morphine per day intrathecal, second infusion period after saline, Dec. 29, 2001, day of study 1): 50%
Pain Score ([2]; Sheep #604 Clint, 6 mg Morphine per day intrathecal, second infusion period after saline, Dec. 30, 2001, day of study 2): 40%
Pain Score ([2]; Sheep #604 Clint, 6 mg Morphine per day intrathecal, second infusion period after saline, Dec. 31, 2001, day of study 3): 38%
Pain Score ([2]; Sheep #604 Clint, 6 mg Morphine per day intrathecal, second infusion period after saline, Jan. 1, 2002, day of study 4): 40%
Pain Score ([2]; Sheep #604 Clint, 6 mg Morphine per day intrathecal, second infusion period after saline, Jan. 2, 2002, day of study 5): 30%
Pain Score ([2]; Sheep #604 Clint, 6 mg Morphine per day intrathecal, second infusion period after saline, Jan. 3, 2002, day of study 6): 33%
Pain Score ([2]; Sheep #604 Clint, 6 mg Morphine per day intrathecal, second infusion period after saline, Jan. 4, 2002, day of study 7): 30%
Pain Score ([2]; Sheep #604 Clint, 6 mg Morphine per day intrathecal, second infusion period after saline, Jan. 5, 2002, day of study 8): 30%
Pain Score ([2]; Sheep #604 Clint, 6 mg Morphine per day intrathecal, second infusion period after saline, Jan. 6, 2002, day of study 9): 30%
Pain Score ([2]; Sheep #604 Clint, 6 mg Morphine per day intrathecal, second infusion period after saline, Jan. 7, 2002, day of study 10): 30%
Pain Score ([2]; Sheep #604 Clint, 6 mg Morphine per day intrathecal, second infusion period after saline, Jan. 8, 2002, day of study 11): 30%
Pain Score ([2]; Sheep #604 Clint, 6 mg Morphine per day intrathecal, second infusion period after saline, Jan. 9, 2002, day of study 12, pump then refilled with saline at 9:44 AM): 15%
average pain score ([2]; sheep #604 Clint, first 13 days of infusion at 6 mg/day): 43%
average pain scores ([2]; sheep #604 Clint, later infusions begun with either morphine or saline): 30-50%
average pain score ([2]; sheep #980 Dudley, 1 mg/day gradually increased to 6 mg/day): 76%
Pain Score ([2]; sheep #980 Dudley, 6.5 mg/day after 13 days of treatment): 20%
clinical behavior during therapy ([4]; intrathecal): restlessness, pain behaviors such as biting itself near the area of the catheter tip, and frequently laying down
necropsy, spinal cord ([4]; lesion 0.8 cm (L)×0.5 cm (W)×0.3 cm (Depth)): cavitated lesion in the spinal cord in front of the catheter tip
approximate equipotent dose, IV ([3]; in vivo, iv): 200
approximate equipotent dose, PO ([3]; in vivo, po): 600
approximate equipotent dose, IT ([3]; in vivo): 10
